Laboratory results: PubChem BioAssay (NCI)
Values joined by “and” are separate entries in the source; they are usually repeats but may differ in a detail not shown here. Equal entries are not always repeated.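 Following 48 hours of exposure in 96-well plates, responses at five concentrations were used to interpolate endpoints linearly. GI50 marks 50% less growth. TGI denotes the concentration required for complete inhibition of growth.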

test system: MDA-MB-468 breast; assay: NCI tumour cell line growth inhibition, 48 h

Compound	GI50	TGI
COc1cccc2c1C(=O)c1c(O)c3c(c(O)c1C2=O)C[C@@](O)(C(=O)CO)C[C@@H]3OC1CC(N)C(O)C(C)O1 (stereo partly specified)	0.0599 µM and 0.0589 µM and 0.0971 µM	0.25 µM and 0.236 µM and 0.486 µM
Nc1ccc2c(c1)Cc1cc(Cl)c(Cl)cc1-2	1.36 µM	86.4 µM
c1cc(N2CCCC2)c2nc(-c3[nH]ncc3Nc3ncnc4[nH]ccc34)[nH]c2c1	0.0661 µM	0.265 µM
O=C1NC(=NCCc2cccs2)S/C1=C\c1ccc2ncccc2c1	5.53 µM	> 25 µM
CC(C)(O)c1coc(S(=O)(=O)/N=C(\O)Nc2c3c(cc4c2CCC4)CCC3)c1	> 100 µM	> 100 µM
COc1ccc(C2=C(c3cn(C)c4ccccc34)C(=O)NC2=O)cc1	9.84 µM	> 25 µM
COc1cc(C2c3cc4c(cc3OC(N3CCCCC3)C2C)OCO4)cc(OC)c1OC (stereo unspecified)	3.66 µM	30.3 µM
O=C(N/N=C/c1ccc(Cl)s1)c1[nH]c2ccc(Br)cc2c1-c1ccccc1	0.286 µM	4.2 µM
CCCCCCCCCCCCC[N+](C)(C)Cc1ccccc1	0.213 µM	0.852 µM
CCN1CCN(c2cc(C)nc(N(CCCNc3ccnc4cc(Cl)ccc34)Cc3cccs3)n2)CC1	1.98 µM	5.09 µM
COc1c(OCCCN2CCOCC2)ccc2c3n(c(=NC(=O)c4cnc(N)nc4)nc12)CCN3	0.0212 µM and 0.0279 µM and 0.0389 µM	229 nM [middle of 4 runs]
CCCCCCCCCCCCCCCCCCOP(=O)([O-])OC1CC[N+](C)(C)CC1	3.74 µM	> 10 µM
Cc1ncn(-c2ccc(/C=N/Nc3ccnc4cc(Cl)ccc34)cc2)c1C	1.48 µM	3 µM
COc1cc(C(=O)/C=C/c2c(-c3cccs3)nc3sc(C)cn23)cc(OC)c1OC	2.23 µM	8.45 µM
CCOC(=O)c1c(NCC(=O)Nc2cccc([N+](=O)[O-])c2)sc(C(C)=O)c1C	1.85 µM	4.53 µM
COC(=O)c1c2c(c[n+]([O-])c1C)C(=O)C=C(NCc1ccccc1)C2=O	0.138 µM	0.371 µM
COc1cc(Nc2cc(C)nc(N3CCN(c4ccnc5cc(Cl)ccc45)CC3)n2)cc(OC)c1	0.129 µM	3.2 µM
COc1cc2c3c(n(CCCN4CCCCC4)c(=O)c2cc1OC)-c1cc2c(cc1C3=O)OCO2	1.49 µM	2.86 µM
CC#Cc1nc2ccccc2c(=O)[nH]1	2.36 µM	6.04 µM
CN(C)c1ccc2nc3ccc(=N)cc-3sc2c1	3.52 µM	13.8 µM
COc1cc(/C=C/C(=O)c2cc(OC)c(OC)c(OC)c2)ccc1Oc1nc2c(c(=O)n(C)c(=O)n2C)n1C	1.92 µM	3.73 µM

Compound	GI50	TGI
CCN(CC)c1ccc(N=O)cc1	1.72 µM	4.39 µM
CCOC(=O)c1cc(C(=O)c2ccc(Cl)cc2)n2ccc(-c3cc[n+](CC(=O)c4ccc(OC)cc4)cc3)cc12	1.84 µM	3.75 µM
C=C(C)[C@@H]1CC[C@]2(CNCCO)CC[C@]3(C)[C@H](CC[C@@H]4[C@@]5(C)CCC(N)[C@@](C)(CO)[C@@H]5CC[C@]43C)[C@@H]12 (stereo partly specified)	1.61 µM	3.18 µM
CC1(C)CCC(S(=O)(=O)c2ccc3c(c2)/C(=N\O)c2cc(S(=O)(=O)N4CCN(c5ccc(F)cc5O)CC4)ccc2-3)CC1	0.0371 µM	0.134 µM
Cn1cc(C2=C(Sc3ccccc3)C(=O)NC2=O)c2ccccc21	4.94 µM	10.4 µM
Nc1nc2c(c3cnccc13)C(c1cccc(Br)c1)Cc1cnccc1-2 (stereo unspecified)	0.257 µM	0.808 µM
CC[C@]12C=CCN3CC[C@]4(C(=C(C(=O)OC)C1)Nc1cc(OC)c(OC(C)=O)cc14)[C@@H]32	0.428 µM	20.2 µM
CC1=C(SCCC(=O)OCC(=O)NCCC[Te]c2ccccc2)C(=O)c2ccccc2C1=O	1.81 µM	3.61 µM
NC(=O)c1cccc(-n2ccc3cc(NC(=O)Nc4ccc(N5CCOCC5)c(C(F)(F)F)c4)ccc32)n1	2.44 µM	7.53 µM
CC(C)(C)c1[nH]nc2c1C(c1cc3ccccc3[nH]c1=O)Nc1cc(C(=O)Nc3ccc(Cl)cc3)ccc1N2 (stereo unspecified)	1.36 µM	3.08 µM
COc1ccc2c(CCC(c3ccccc3)c3ccccc3)c3[n+](cc2c1OC)CCc1cc2c(cc1-3)OCO2		0.228 µM
O=C1OCC2=C1C(c1cccc(F)c1)c1cc3c(cc1N2CCO)CCC3 (stereo unspecified)	0.0371 µM	1.09 µM
Cc1c(NC(=O)c2cc(C(N)=O)nc3cc(F)ccc23)c(C(F)(F)F)nn1Cc1ccc(C#N)cc1	6.58 µM	> 71.9 µM
COc1ccc2c(c1)N(CCO)C1=C(C(=O)OC1)C2c1cc(OC)c(OC)c(OC)c1 (stereo unspecified)	0.0123 µM	0.0405 µM
Cc1cccc(NC(=O)c2sc3nc4c(cc3c2N)CCCC4)c1	1.75 µM	44.1 µM
CC(=O)OCC1OC(OC2=C(CC=C(C)C)C(=O)c3ccccc3C2=O)C(OC(C)=O)C(OC(C)=O)C1OC(C)=O (stereo unspecified)	1.58 µM	3.68 µM
CC(C)=CC(=O)OCC(=O)O[C@@H]1C[C@]2(C(C)C)O[C@@]1(C)[C@@H]1CC[C@@H](C)[C@H]1[C@@H]2OC(=O)/C=C/c1ccccc1	11.4 µM	> 82.7 µM
CCOC(=O)c1ccc2c(c1)c1c(C)c3ccncc3c(C)c1n2C	1.16 µM	2.83 µM
O=C1/C(=C\c2ccc(Br)cc2)CN(C(=O)c2ccccc2F)C/C1=C\c1ccc(Br)cc1	1.69 µM	3.69 µM
Cc1cc(C)c(CNC(=O)c2cc(-c3ccc(CN4CCOCC4)cc3)cc3c2cnn3C2CCCC2)c(=O)[nH]1	13.9 µM	36.2 µM
